The nature of assay [1]: In vitro antiviral activity against HIV-1 Reverse transcriptase M184V mutant.
Assay [2] is described as follows: In vitro antiviral activity against HIV-1 Reverse transcriptase wild type.

One may read the EC50 as the concentration needed to bring the measured effect to its halfway point. Low values mean a more potent agent, high ones a less potent agent. For the compound `Nc1ccn([C@@H]2CS[C@H](CO)O2)c(=O)n1` [Epivir], the EC50 in assay [1] was more than 50000 nM; in assay [2], 42 nM.
Take `Nc1nc(=O)n([C@@H]2C=C[C@H](CO)O2)cc1F` [ACH-126443]: the figures for the EC50 in assay [1] and in assay [2] were 140 nM and 180 nM, respectively.
Taken in the same sequence, the figures for `Cc1cn([C@H]2C=C[C@@H](CO)O2)c(=O)[nH]c1=O` [2',3'-didehydro-3'-deoxythymidine] were 500 nM and 450 nM.

The values are drawn from BindingDB's records for doi:10.1016/s0960-894x(03)00330-5 (The University of Georgia, 2003).
